Source: patent US7435872B2, “Role of p62 in aging-related disease” (Samsung Electronics, Co., Ltd., priority 2002, dated 2008)
Square brackets hold non-standard residues; d marks the D form. Peptide text beside a SMILES is read from it. * marks the point of attachment. Nle = CCCC[C@H](N)C(=O)O; Cbz = O=C(OCc1ccccc1)*

How the values were obtained:
[1] = test system: p62+/+ and p62-/- mouse embryo fibroblast (MEF); test: Cell viability by MTT assay after glutathione depletion; format: cell-based; settings: different concentrations of DEM or BSO; p62-null versus wild type MEFs
Experimental: (§1) FIGS. 44A-44B show effects of glutathione depletion on cell viability in p62+/+ and p62−/− mouse embryo fibroblast (MEF). Cell viability was assessed with a methylthiazolium (MTT) assay, which measures mitochondrial dehydrogenase activity of viable cells spectrophotometrically. MEF (3×10^3 cells/well) in 96-well plates were treated with different concentrations of DEM (A) or BSO (B) washed with PBS and then incubated with 0.5 mg/ml MTT in PBS for 4 h. To solubilize the formazan products, […] DMSO was added. The absorption values at 570 nm were determined.
as §1, with “In addition to the above, FIGS.” for “FIGS.”, “determined. […] This death of p62-null MEFs is an apoptotic process (FIG. 48). Thus, p62 appears to have the function of regulating cellular redox status and/or cellular reactive oxygen species (ROS) generation and scavenging systems.” for “determined.”

p62 gene = test: Activation of the p62 gene, immunoblot and RNA analysis; format: cell-based; settings: COS7 cells, 20 mM LLnL, with or without actinomycin D
From the text: Equivalent loading was confirmed by anti-beta-actin immunoblotting. […] Equivalent loading of RNA was confirmed by staining 28S and 18S ribosomal RNA with ethidium bromide (lower panel).

HEK 293 cells = test: Colocalization of p62 with multi-ubiquitin chain; format: cell-based; settings: increasing concentrations of LLnL, 16 hours
[2] = test system: mouse embryonic fibroblasts (MEFs); test: Ubiquitin-positive inclusion formation in MEFs; format: cell-based; design: dose or concentration left out as unconfirmed; settings: 12 hours
From the text: FIGS. 37A-37B show p62 aggregates formed in MEF in the presence of GSH-depletor. […] Bar=10 μm.
Ubiquitin-p62 inclusion is formed in mouse embryonic fibroblasts. […] MEFs from p62 null embryos were transfected with a p62 expression vector.
Further, p62-positive intracellular inclusion are also formed by oxidative stress. For instance, FIGS. 37A-37B show the formation of p62- or ubiquitin-positive aggregates in MEF in the presence of glutathione (GSH) depletory, diethylmaleate (DEM). […] Thus, p62 has a function to collect misfolded and/or ubiquitinated intracellular proteins and make intracellular inclusions.

COS7 cells [3] = test: Sequestosome (p62 inclusion) formation, anti-p62 immunostaining; design: p62 accumulation in sequestosome / cellular inclusion formation in the presence of translational inhibitor: dose or concentration left out as unconfirmed; settings: 12 hours; for formation of sequestosome: 20 mM ALLN, 5 mM lactacystin, 10 mM MG 132, 50 nM epoxomicin
COS7 cells [4] = test: p62 level in triton X-100 soluble and insoluble fractions, immunoblot; format: cell-based; design: dose or concentration left out as unconfirmed; settings: plus cycloheximide

Structure (SMILES): CCCCS(=N)(=O)CCC(N)C(=O)O (stereo not shown) [BSO, buthioninesulfoximine]
- cell viability (MTT) on glutathione depletion [1]: p62-null MEFs die more readily compared with wild type MEFs

Structure (SMILES): CCCC[C@@H](C=O)NC(=O)[C@H](CC(C)C)NC(=O)[C@H](CC(C)C)NC(C)=O [LLnL] (Ac-Leu-Leu-[Nle]-aldehyde)
- p62 gene activation / p62 level (p62 gene): activation of the p62 gene
- colocalization of p62 with multi-ubiquitin chain (HEK 293 cells): colocalization of p62 with multi-ubiquitin chain
- ubiquitin-positive inclusion formation, p62-heterozygote MEF [2]: can form the inclusion but less efficiently
- ubiquitin-positive inclusion formation, p62-null MEF [2]: cannot form the inclusion at all
- ubiquitin-positive inclusion formation, p62 wild type MEF [2]: formed ubiquitin-positive inclusions well
- p62 accumulation in sequestosome (COS7 cells [3]): p62 accumulates in sequestosome
- formation of sequestosome (COS7 cells [3]): can induce formation of sequestosome

Structure (SMILES): CC(C)C[C@@H](C=O)NC(=O)[C@H](CC(C)C)NC(=O)[C@H](CC(C)C)NC(=O)OCc1ccccc1 [MG 132] (Cbz-Leu-Leu-Leu-aldehyde)
- formation of sequestosome (COS7 cells [3]): can induce formation of sequestosome

Structure (SMILES): C[C@@H]1C[C@@H]([C@H](O)CC2CC(=O)NC(=O)C2)C(=O)[C@@H](C)C1 [cycloheximide]
- p62 cellular level (COS7 cells [4]): not increased
- cellular inclusion formation in the presence of translational inhibitor (COS7 cells [3]; plus cycloheximide): not formed

Structure (SMILES): CC[C@H](C)[C@H](NC(=O)[C@H]([C@@H](C)CC)N(C)C(C)=O)C(=O)N[C@H](C(=O)N[C@@H](CC(C)C)C(=O)[C@@]1(C)CO1)[C@@H](C)O [epoxomicin]
- formation of sequestosome (COS7 cells [3]): can induce formation of sequestosome

Structure (SMILES): CC(=O)N[C@@H](CSC(=O)[C@]1([C@@H](O)C(C)C)NC(=O)[C@H](C)[C@@H]1O)C(=O)O [lactacystin]
- formation of sequestosome (COS7 cells [3]): can induce formation of sequestosome
